Assay results reported in US11970474B2, “Substituted benzodiazoles and use thereof in therapy” (THOMAS HELLEDAYS STIFTELSE FÖR MEDICINSK FORSKNING, priority 2018, dated 2024).

Key:
OGG1 = OGG1 (Homo sapiens (Human), UniProt O15527); assay: In vitro OGG1 activity assay; format: biochemical; conditions: 800 pM OGG1 enzyme, 2 nM human APEX1, 10 nM 8-oxoA:C substrate
Summary of the method: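 Read-out is fluorescein fluorescence, with compounds in DMSO added first, then enzyme and substrate. OGG1 excises its substrate base from a quenched fluorophore-labelled duplex, and surplus APEX1 cuts the resulting apurinic site. The duplex then melts and fluorescence rises in proportion to glycosylase activity.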

MLE12 cells = assay: Cell viability assay in MLE12 cells (resazurin); format: cell-based, mouse; conditions: Mus musculus, MLE12, 24 h, TNF-α 20 ng/ml, resazurin added after 24 hours culture
Summary of the method: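 MLE12 cells (7500 cells/well) were seeded onto 11-point duplicate compound dose-responses, with TNF-α (final 20 ng/ml) added after 1 hour at 37° C. After 24 hours, resazurin was added for 6 hours and resorufin fluorescence read (ex544 nm/em595 nm). EC50 values were calculated by curve fitting.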

CCL2 = assay: Mouse CCL2 assay in MLE12 cells; format: cell-based; conditions: Mus musculus, MLE12, 30 h, MLE12 cells; TNF-α 20 ng/ml; supernatant after 30 hours; HTRF; read-out: CCL2 (EC50)
Summary of the method: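 CCL2 in supernatants was quantified by two-antibody HTRF FRET, read at 620 and 665 nm after overnight RT incubation, with IC50 derived from delta ratios. Cells were SV40-transformed mouse MLE12, treated with duplicate 6-point compound series for 1 h before 30 h TNF-α (20 ng/ml final) stimulation.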

Chain of OGG1 (O15527 whole entry): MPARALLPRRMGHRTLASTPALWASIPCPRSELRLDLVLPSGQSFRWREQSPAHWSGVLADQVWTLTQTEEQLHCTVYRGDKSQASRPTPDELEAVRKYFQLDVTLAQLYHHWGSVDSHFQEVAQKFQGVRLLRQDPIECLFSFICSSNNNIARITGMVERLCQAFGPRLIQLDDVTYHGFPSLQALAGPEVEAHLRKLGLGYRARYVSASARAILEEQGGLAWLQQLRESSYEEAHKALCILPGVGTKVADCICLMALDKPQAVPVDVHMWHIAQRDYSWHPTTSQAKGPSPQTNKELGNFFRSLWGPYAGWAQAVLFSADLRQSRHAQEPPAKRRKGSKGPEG

Row | SMILES | IC50 (OGG1) [µM] | IC50 (MLE12 cells) [µM] | EC50 (CCL2) [µM]
1 | COc1ncc(NC(=O)[C@H]2CC[C@@H](n3c(=O)[nH]c4c(Br)cccc43)CC2)cc1C [Example 168, (Cis)-4-(4-bromo-2-oxo-2,3-dihydro-1H-1,3-benzodiazol-1-yl)-N-(6-methoxy-5-methylpyridin-3-yl)cyclohexane-1-carboxamide] | 0.044 | 14.4 | 32.6
2 | Cn1ncc2cc(NC(=O)[C@H]3CC[C@@H](n4c(=O)[nH]c5c(Br)cccc54)CC3)ccc21 [Example 171, (Cis)-4-(4-bromo-2-oxo-2,3-dihydro-1H-1,3-benzodiazol-1-yl)-N-(1-methyl-1H-indazol-5-yl)cyclohexane-1-carboxamide] | 0.211 | 17.5 | 41.1
3 | COc1ccc(NC(=O)[C@H]2CC[C@@H](n3c(=O)[nH]c4c(Br)cccc43)CC2)cn1 [Example 183, Cis-4-(4-bromo-2-oxo-2,3-dihydro-1H-1,3-benzodiazol-1-yl)-N-(6-methoxypyridin-3-yl)cyclohexane-1-carboxamide] | 0.174 | 17 | 36.2
4 | O=c1[nH]c2c(Br)cccc2n1[C@H]1CC[C@@H](C(=O)Nc2ccc(Cl)nc2)CC1 [Example 184, Cis-4-(4-bromo-2-oxo-2,3-dihydro-1H-1,3-benzodiazol-1-yl)-N-(6-chloropyridin-3-yl)cyclohexane-1-carboxamide] | 0.325 | 7.86 | 16.8
5 | Cc1cc(NC(=O)[C@H]2CC[C@@H](n3c(=O)[nH]c4c(Br)cccc43)CC2)cnc1Cl [Example 187, Cis-4-(4-bromo-2-oxo-2,3-dihydro-1H-1,3-benzodiazol-1-yl)-N-(6-chloro-5-methylpyridin-3-yl)cyclohexane-1-carboxamide] | 0.338 | 7.9 | 13
6 | O=c1[nH]c2c(Br)cccc2n1[C@H]1CC[C@@H](C(=O)Nc2ccc(O)cc2)CC1 [Example 191, Cis-4-(4-bromo-2-oxo-2,3-dihydro-1H-1,3-benzodiazol-1-yl)-N-(4-hydroxyphenyl)cyclohexane-1-carboxamide] | 0.0557 | 29.8 | 33.5
7 | COc1ccc(NC(=O)[C@H]2CC[C@@H](n3c(=O)[nH]c4c(Br)cccc43)CC2)cc1OC [Example 192, Cis-4-(4-bromo-2-oxo-2,3-dihydro-1H-1,3-benzodiazol-1-yl)-N-(3,4-dimethoxyphenyl)cyclohexane-1-carboxamide] | 0.0342 | 15.7 | 32.9
8 | Cc1cc(NC(=O)[C@H]2CC[C@@H](n3c(=O)[nH]c4c(Br)cccc43)CC2)ccc1O [Example 194, Cis-4-(4-bromo-2-oxo-2,3-dihydro-1H-1,3-benzodiazol-1-yl)-N-(4-hydroxy-3-methylphenyl)cyclohexane-1-carboxamide] | 0.0172 | 15.6 | 33.5
9 | O=c1[nH]c2c(Br)cccc2n1[C@H]1CC[C@@H](C(=O)Nc2ccc3c(c2)OCCO3)CC1 [Example 197, Cis-4-(4-bromo-2-oxo-2,3-dihydro-1H-1,3-benzodiazol-1-yl)-N-(2,3-dihydro-1,4-benzodioxin-6-yl)cyclohexane-1-carboxamide] | 0.0389 | 19.5 | 30.2
10 | Cc1n[nH]c2ccc(NC(=O)[C@H]3CC[C@@H](n4c(=O)[nH]c5c(Br)cccc54)CC3)cc12 [Example 199, Cis-4-(4-bromo-2-oxo-2,3-dihydro-1H-1,3-benzodiazol-1-yl)-N-(3-methyl-1H-indazol-5-yl)cyclohexane-1-carboxamide] | 0.494 | 7.51 | 16.5
11 | O=c1[nH]c2c(Br)cccc2n1[C@H]1CC[C@@H](C(=O)Nc2ccc(O)c(Cl)c2)CC1 [Example 201, Cis-4-(4-bromo-2-oxo-2,3-dihydro-1H-1,3-benzodiazol-1-yl)-N-(3-chloro-4-hydroxyphenyl)cyclohexane-1-carboxamide] | 0.0351 | 10.4 | 18.2
12 | COc1ncc(NC(=O)[C@H]2CC[C@@H](n3c(=O)[nH]c4c(Br)cccc43)CC2)cc1Cl [Example 202, Cis-4-(4-bromo-2-oxo-2,3-dihydro-1H-1,3-benzodiazol-1-yl)-N-(5-chloro-6-methoxypyridin-3-yl)cyclohexane-1-carboxamide] | 0.0528 | 7.97 | 11.6
13 | O=c1[nH]c2c(Br)cccc2n1[C@H]1CC[C@@H](C(=O)Nc2ccc3ncccc3c2)CC1 [Example 204, Cis-4-(4-bromo-2-oxo-2,3-dihydro-1H-1,3-benzodiazol-1-yl)-N-(quinolin-6-yl)cyclohexane-1-carboxamide] | 0.0656 | 7.93 | 12.9
14 | COc1ccc(NC(=O)[C@H]2CC[C@@H](n3c(=O)[nH]c4c(OC)cccc43)CC2)cc1C [Example 206, Cis-4-(4-methoxy-2-oxo-2,3-dihydro-1H-1,3-benzodiazol-1-yl)-N-(4-methoxy-3-methylphenyl)cyclohexane-1-carboxamide] | 0.0154 | 26.7 | 33.7
15 | COc1cccc2c1[nH]c(=O)n2[C@H]1CC[C@@H](C(=O)Nc2ccc3cc[nH]c3c2)CC1 [Example 209, Cis-N-(1H-indol-6-yl)-4-(4-methoxy-2-oxo-2,3-dihydro-1H-1,3-benzodiazol-1-yl)cyclohexane-1-carboxamide] | 0.402 | 21.5 | 34.9
16 | COc1ccc(NC(=O)[C@H]2CC[C@@H](n3c(=O)[nH]c4c(F)cccc43)CC2)cc1C [Example 212, Cis-4-(4-fluoro-2-oxo-2,3-dihydro-1H-1,3-benzodiazol-1-yl)-N-(4-methoxy-3-methylphenyl)cyclohexane-1-carboxamide] | 0.00943 | 16.9 | 34.2
17 | Cc1ccc(NC(=O)[C@H]2CC[C@@H](n3c(=O)[nH]c4c(Br)cccc43)CC2)cc1O [Example 221, Cis-4-(4-bromo-2-oxo-2,3-dihydro-1H-1,3-benzodiazol-1-yl)-N-(3-hydroxy-4-methylphenyl)cyclohexane-1-carboxamide] | 0.0272 | 7.84 | 15.2
18 | COc1cc(NC(=O)[C@H]2CC[C@@H](n3c(=O)[nH]c4c(-c5cccc(OCCN(C)C)c5)cccc43)CC2)ccc1C [Example 225, Cis-4-(4-{3-[2-(dimethylamino)ethoxy]phenyl}-2-oxo-2,3-dihydro-1H-1,3-benzodiazol-1-yl)-N-(3-methoxy-4-methylphenyl)cyclohexane-1-carboxamide] | 0.0335 | 1.71 | 3.13
19 | COc1cc(NC(=O)[C@H]2CC[C@@H](n3c(=O)[nH]c4ccccc43)CC2)ccc1C [Example 226, Cis-N-(3-methoxy-4-methylphenyl)-4-(2-oxo-2,3-dihydro-1H-1,3-benzodiazol-1-yl)cyclohexane-1-carboxamide] | 0.0779 | 17.1 | 34.1
20 | COc1cc(NC(=O)[C@H]2CC[C@@H](n3c(=O)[nH]c4c(O)cccc43)CC2)ccc1C [Example 227, Cis-4-(4-hydroxy-2-oxo-2,3-dihydro-1H-1,3-benzodiazol-1-yl)-N-(3-methoxy-4-methylphenyl)cyclohexane-1-carboxamide] | 0.0179 | 16.5 | 27.5
